{
  "source": "patent US10350224B2",
  "about": "“Stabilized modified release vitamin D formulation and method of administering same” (OPKO IRELAND GLOBAL HOLDINGS, LTD., priority 2013, dated 2019)",
  "key": {"[1]": {"system": "serum iPTH", "assay": "Study A: serum iPTH after single dose", "type": "in vivo, human", "details": "single i.v. dose 448 μg, first 96 hours"}, "[2]": {"assay": "Study A: single-dose pharmacokinetics of serum 25-hydroxyvitamin D3 in subjects with stage 3 or 4 CKD", "type": "in vivo, human", "details": "for Tmax / Cmax / AUC(0-t) / AUC(0-inf) / half-life: human, serum, iv, 448 ug"}, "[3]": {"system": "serum total 1,25-dihydroxyvitamin D", "assay": "Study A: serum total 1,25-dihydroxyvitamin D after single dose", "type": "in vivo, human", "details": "single i.v. dose 448 μg, by 6 hours post-dose"}, "[4]": {"assay": "Study B: single-dose pharmacokinetics of 25-hydroxyvitamin D3 in healthy subjects", "type": "in vivo", "details": "human, serum, iv, 448 ug, single i.v. dose 448 μg in ethanol solution"}, "[5]": {"details": "baseline-adjusted 25-hydroxyvitamin D3, 448 μg iv single dose"}, "[6]": {"details": "observed 25-hydroxyvitamin D3, 448 μg iv single dose"}},
  "note": "Read-outs that look alike come from different tables or passages of the source.",
  "data": [
    {"molecule": "C=C1CC[C@H](O)C/C1=C/C=C1\\CCC[C@]2(C)[C@@H]([C@H](C)CCCC(C)(C)O)CC[C@@H]12", "note": "[25-hydroxyvitamin D3]", "values": [
      {"measurement": "change in serum iPTH", "setting": "[1]", "value": "no meaningful change"},
      {"measurement": "CL mean (SD)", "setting": "[2]; [5]", "value": "0.036 (0.014) L/ng * h"},
      {"measurement": "CL median", "setting": "[2]; [5]", "value": 0.037, "unit": "L/ng/h"},
      {"measurement": "F mean", "setting": "[2]; [5]", "value": "1.000 (NA)"},
      {"measurement": "Vd mean (SD)", "setting": "[2]; [5]", "value": "32.94 (11.00) L/ng"},
      {"measurement": "Vd median", "setting": "[2]; [5]", "value": 29.70, "unit": "L/ng"},
      {"measurement": "λ2 mean (SD)", "setting": "[2]; [5]", "value": "0.0011 (0.0005) h^−1"},
      {"measurement": "λ2 median", "setting": "[2]; [5]", "value": 0.0010, "unit": "h⁻¹"},
      {"measurement": "Tmax", "setting": "[2]; Study A, single i.v. dose 448 μg in ethanol solution, read-out: Tmax", "value": 30, "unit": "min"},
      {"measurement": "Cmax", "setting": "[2]; approximate mean Cmax of 25-hydroxyvitamin D3, Study A, single i.v. dose 448 μg in ethanol solution", "value": "~134", "unit": "ng/mL"},
      {"measurement": "AUC(0-t)", "setting": "[2]; baseline-adjusted 25-hydroxyvitamin D3, 448 μg iv single dose, read-out: AUC0-42 days mean", "value": 19600, "unit": "ng·h/mL"},
      {"measurement": "AUC(0-t)", "setting": "[2]; baseline-adjusted 25-hydroxyvitamin D3, 448 μg iv single dose, read-out: AUC0-42 days median", "value": 18800, "unit": "ng·h/mL"},
      {"measurement": "AUC(0-inf)", "setting": "[2]; baseline-adjusted 25-hydroxyvitamin D3, 448 μg iv single dose, read-out: AUC0-inf mean", "value": 34500, "unit": "ng·h/mL"},
      {"measurement": "AUC(0-inf)", "setting": "[2]; baseline-adjusted 25-hydroxyvitamin D3, 448 μg iv single dose, read-out: AUC0-inf median", "value": 27000, "unit": "ng·h/mL"},
      {"measurement": "AUC(0-t)", "setting": "[2]; baseline-adjusted 25-hydroxyvitamin D3, 448 μg iv single dose, read-out: AUC0-last mean", "value": 19600, "unit": "ng·h/mL"},
      {"measurement": "AUC(0-t)", "setting": "[2]; baseline-adjusted 25-hydroxyvitamin D3, 448 μg iv single dose, read-out: AUC0-last median", "value": 18800, "unit": "ng·h/mL"},
      {"measurement": "Cmax", "setting": "[2]; baseline-adjusted 25-hydroxyvitamin D3, 448 μg iv single dose, read-out: Cmax mean (SD)", "value": 110, "unit": "ng/mL"},
      {"measurement": "Cmax", "setting": "[2]; baseline-adjusted 25-hydroxyvitamin D3, 448 μg iv single dose, read-out: Cmax median", "value": 111, "unit": "ng/mL"},
      {"measurement": "half-life", "setting": "[2]; baseline-adjusted 25-hydroxyvitamin D3, 448 μg iv single dose, read-out: t1/2 mean (SD) (converted)", "value": 31.1, "unit": "days"},
      {"measurement": "half-life", "setting": "[2]; baseline-adjusted 25-hydroxyvitamin D3, 448 μg iv single dose, read-out: t1/2 median (converted)", "value": 27.6, "unit": "days"},
      {"measurement": "Tmax", "setting": "[2]; baseline-adjusted 25-hydroxyvitamin D3, 448 μg iv single dose, read-out: tmax mean (SD)", "value": 29.4, "unit": "min"},
      {"measurement": "Tmax", "setting": "[2]; baseline-adjusted 25-hydroxyvitamin D3, 448 μg iv single dose, read-out: tmax median", "value": 15, "unit": "min"},
      {"measurement": "AUC(0-t)", "setting": "[2]; observed 25-hydroxyvitamin D3, 448 μg iv single dose, read-out: AUC0-42 days mean", "value": 43500, "unit": "ng·h/mL"},
      {"measurement": "AUC(0-t)", "setting": "[2]; observed 25-hydroxyvitamin D3, 448 μg iv single dose, read-out: AUC0-42 days median", "value": 47100, "unit": "ng·h/mL"},
      {"measurement": "AUC(0-inf)", "setting": "[2]; observed 25-hydroxyvitamin D3, 448 μg iv single dose, read-out: AUC0-inf mean", "value": 138000, "unit": "ng·h/mL"},
      {"measurement": "AUC(0-inf)", "setting": "[2]; observed 25-hydroxyvitamin D3, 448 μg iv single dose, read-out: AUC0-inf median", "value": 124000, "unit": "ng·h/mL"},
      {"measurement": "AUC(0-t)", "setting": "[2]; observed 25-hydroxyvitamin D3, 448 μg iv single dose, read-out: AUC0-last mean", "value": 43500, "unit": "ng·h/mL"},
      {"measurement": "AUC(0-t)", "setting": "[2]; observed 25-hydroxyvitamin D3, 448 μg iv single dose, read-out: AUC0-last median", "value": 47100, "unit": "ng·h/mL"},
      {"measurement": "Cmax", "setting": "[2]; observed 25-hydroxyvitamin D3, 448 μg iv single dose, read-out: Cmax mean (SD)", "value": 134, "unit": "ng/mL"},
      {"measurement": "Cmax", "setting": "[2]; observed 25-hydroxyvitamin D3, 448 μg iv single dose, read-out: Cmax median", "value": 134, "unit": "ng/mL"},
      {"measurement": "half-life", "setting": "[2]; observed 25-hydroxyvitamin D3, 448 μg iv single dose, read-out: t1/2 mean (SD) (converted)", "value": 74, "unit": "days"},
      {"measurement": "half-life", "setting": "[2]; observed 25-hydroxyvitamin D3, 448 μg iv single dose, read-out: t1/2 median (converted)", "value": 70.6, "unit": "days"},
      {"measurement": "Tmax", "setting": "[2]; observed 25-hydroxyvitamin D3, 448 μg iv single dose, read-out: tmax mean (SD)", "value": 29.4, "unit": "min"},
      {"measurement": "Tmax", "setting": "[2]; observed 25-hydroxyvitamin D3, 448 μg iv single dose, read-out: tmax median", "value": 15, "unit": "min"},
      {"measurement": "CL mean (SD)", "setting": "[2]; [6]", "value": "0.0095 (0.0065) L/ng * h"},
      {"measurement": "CL median", "setting": "[2]; [6]", "value": 0.0081, "unit": "L/ng/h"},
      {"measurement": "F mean", "setting": "[2]; [6]", "value": "1.000 (NA)"},
      {"measurement": "Vd mean (SD)", "setting": "[2]; [6]", "value": "20.35 (7.42) L/ng"},
      {"measurement": "Vd median", "setting": "[2]; [6]", "value": 19.550, "unit": "L/ng"},
      {"measurement": "λ2 mean (SD)", "setting": "[2]; [6]", "value": "0.0005 (0.0002) h^−1"},
      {"measurement": "λ2 median", "setting": "[2]; [6]", "value": 0.0004, "unit": "h⁻¹"},
      {"measurement": "increase of mean serum total 1,25-dihydroxyvitamin D from pre-treatment baseline", "setting": "[3]", "value": "approximately 13 pg/mL"},
      {"measurement": "Cmax", "setting": "[4]", "value": 153, "unit": "ng/mL"}
    ]}
  ]
}
